Laboratory results taken from patent US20220403001A1, “PDE5 DERIVED REGULATORY CONSTRUCTS AND METHODS OF USE IN IMMUNOTHERAPY” (Obsidian Therapeutics, Inc., priority 2018, published 2022).

Assays:
hPDE5 mutants [1] = molecular target: hPDE5 mutants (Homo sapiens, UniProt O76074); experiment: GFP FACS analysis of hPDE5 mutant library clones in NIH3T3 cell pools; conditions: for MFI 10 μM VDF / MFI DMSO: GFP, NIH3T3 cell pools; for MFI 10 μM VDF: 10 μM vardenafil 24 hr; for MFI 10 μM VDF / MFI DMSO / GFP FACS analysis (MFI): experiment 1; for MFI DMSO: no ligand (DMSO)
hPDE5 mutants [2] = experiment: as above; conditions: experiment 1

Substance	MFI 10 μM VDF (hPDE5 mutants [1])	MFI DMSO (hPDE5 mutants [1])	GFP FACS analysis (MFI) (hPDE5 mutants [1]; SDF 3.704 μM)	GFP FACS analysis (MFI) (hPDE5 mutants [1]; SDF 11.111 μM)	GFP FACS analysis (MFI) (hPDE5 mutants [1]; SDF 33.333 μM)	GFP FACS analysis (MFI) (hPDE5 mutants [1]; SDF 100 μM)	GFP FACS analysis (MFI) (hPDE5 mutants [1]; TDF 3.704 μM)	GFP FACS analysis (MFI) (hPDE5 mutants [1]; TDF 11.111 μM)	GFP FACS analysis (MFI) (hPDE5 mutants [1]; TDF 33.333 μM)	GFP FACS analysis (MFI) (hPDE5 mutants [1]; TDF 100 μM)	GFP FACS analysis (MFI) (hPDE5 mutants [1]; VDF 1.235 μM)	GFP FACS analysis (MFI) (hPDE5 mutants [1]; VDF 3.704 μM)	GFP FACS analysis (MFI) (hPDE5 mutants [1]; VDF 11.111 μM)	GFP FACS analysis (MFI) (hPDE5 mutants [1]; VDF 33.333 μM)	GFP FACS analysis (MFI) (hPDE5 mutants [1]; VDF 100 μM)	GFP FACS analysis (MFI) (hPDE5 mutants [2]; DMSO (no ligand), SDF series)	GFP FACS analysis (MFI) (hPDE5 mutants [2]; DMSO (no ligand), TDF series)	GFP FACS analysis (MFI) (hPDE5 mutants [2]; DMSO (no ligand), VDF series)	GFP FACS analysis (MFI) (hPDE5 mutants [2]; SDF 1.235 μM)	Percent stabilization effect (hPDE5 mutants [2]; SDF 1.235 μM) [%]	further results
LibC000015: hPDE5 (Amino acid 535-860 of WT, T571S, V585M, T723S), DD generated by random mutagenesis	1951	174	331	357	432	630	326	374	463	518	756	1383	2315	3166	3069	301	306	373	320	5.8	Percent stabilization effect (hPDE5 mutants [2]; SDF 3.704 μM): 9.1%; Percent stabilization effect (hPDE5 mutants [2]; SDF 11.111 μM): 17.0%; Percent stabilization effect (hPDE5 mutants [2]; SDF 33.333 μM): 39.8%; Percent stabilization effect (hPDE5 mutants [2]; SDF 100 μM (set as 100%)): 100.0%; GFP FACS analysis (MFI) (hPDE5 mutants [2]; TDF 1.235 μM): 311; Percent stabilization effect (hPDE5 mutants [2]; TDF 1.235 μM): 2.4%; Percent stabilization effect (hPDE5 mutants [2]; TDF 3.704 μM): 9.4%; Percent stabilization effect (hPDE5 mutants [2]; TDF 11.111 μM): 32.1%; Percent stabilization effect (hPDE5 mutants [2]; TDF 33.333 μM): 74.1%; Percent stabilization effect (hPDE5 mutants [2]; TDF 100 μM (set as 100%)): 100.0%; Percent stabilization effect (hPDE5 mutants [2]; VDF 1.235 μM): 14.2%; Percent stabilization effect (hPDE5 mutants [2]; VDF 3.704 μM): 37.5%; Percent stabilization effect (hPDE5 mutants [2]; VDF 11.111 μM): 72.0%; Percent stabilization effect (hPDE5 mutants [2]; VDF 33.333 μM): 103.6%; Percent stabilization effect (hPDE5 mutants [2]; VDF 100 μM (set as 100%)): 100.0%
LibC000020: hPDE5 (Amino acid 535-860 of WT, A722V, F755L, M760I), DD generated by random mutagenesis	1459	332	376	373	407	513	342	371	440	509	399	733	1395	2144	2499	338	243	238	371	18.9	Fluorescence intensity Sildenafil (hPDE5 mutants [1]; median GFP fluorescence by FACS, 10 μM Sildenafil, direct comparison of clones): 513; Fluorescence intensity Tadalafil (hPDE5 mutants [1]; median GFP fluorescence by FACS, 10 μM Tadalafil, direct comparison of clones): 509; Fluorescence intensity Vardenafil (hPDE5 mutants [1]; median GFP fluorescence by FACS, 10 μM Vardenafil, direct comparison of clones): 2499; Fluorescence intensity DMSO (hPDE5 mutants [1]; median GFP fluorescence by FACS, vehicle DMSO (no ligand), direct comparison of clones): 273; Percent stabilization effect (hPDE5 mutants [2]; SDF 3.704 μM): 21.7%; Percent stabilization effect (hPDE5 mutants [2]; SDF 11.111 μM): 20.0%; Percent stabilization effect (hPDE5 mutants [2]; SDF 33.333 μM): 39.4%; Percent stabilization effect (hPDE5 mutants [2]; SDF 100 μM (set as 100%)): 100.0%; GFP FACS analysis (MFI) (hPDE5 mutants [2]; TDF 1.235 μM): 337; Percent stabilization effect (hPDE5 mutants [2]; TDF 1.235 μM): 35.3%; Percent stabilization effect (hPDE5 mutants [2]; TDF 3.704 μM): 37.2%; Percent stabilization effect (hPDE5 mutants [2]; TDF 11.111 μM): 48.1%; Percent stabilization effect (hPDE5 mutants [2]; TDF 33.333 μM): 74.1%; Percent stabilization effect (hPDE5 mutants [2]; TDF 100 μM (set as 100%)): 100.0%; Percent stabilization effect (hPDE5 mutants [2]; VDF 1.235 μM): 7.1%; Percent stabilization effect (hPDE5 mutants [2]; VDF 3.704 μM): 21.9%; Percent stabilization effect (hPDE5 mutants [2]; VDF 11.111 μM): 51.2%; Percent stabilization effect (hPDE5 mutants [2]; VDF 33.333 μM): 84.3%; Percent stabilization effect (hPDE5 mutants [2]; VDF 100 μM (set as 100%)): 100.0%
